Measurements: patent publication EP4039094A1, “NOVEL ANTIFUNGAL COMPOUNDS” (Max-Planck-Gesellschaft zur Förderung der Wissenschaften …, priority 2021, dated 2022)
“Also recorded” adds a separate entry of the source.

System: U. maydis strains FB1 and FB2
Experiment: Maize seedling infection model, compound added to inoculum, symptom scoring 12 dpi
Type: in vivo, Ustilago maydis
Set-up: key to Severity of disease symptoms First infection / Severity of disease symptoms Second infection: Full virulence is symbolized by (XXXXX); XXX - slightly reduced virulence; XX - reduced virulence; x - strongly reduced virulence
Conditions: for inhibitory effect on virulence of U. maydis: 1 mM, 0.5 mM and 0.1 mM final concentration in the inoculum (Figure 2C); for virulence of U. maydis: 5 mM final concentration in the inoculum of FB1xFB2, first test of ten hits; for Retesting for an inhibition of virulence: U. maydis, retest of four compounds; for Severity of disease symptoms First infection: 4-7 plants per assay
Experimental: Compounds to be tested were added to the inoculum. Briefly, 6 day old maize seedlings were syringe-infected with about 0.5 ml of fungal suspension in H2O which was amended with the hit compound. The infection and symptoms assessment were done as described in Kämper et al., (Insights from the genome of the biotrophic fungal plant pathogen Ustilago maydis. Nature 2006, 444, 97-101). During the syringe-infection into the stem, the fungal-compound mix is dispersed between the rolled-up leaves and fills the leaf whorl. The compounds were applied only at the stage of mixing with the inoculum, which is subsequently diluted with existing apoplastic fluid, during the infection. In addition, compounds have to reach the Stp complex in biotrophic hyphae from the initial inoculum. […] Since compounds are dissolved in DMSO, the tolerance of U. maydis towards DMSO was tested by adding DMSO to the inoculum at concentrations between 10 and 50% final concentration.
Symptom scoring was done 12 days post infection (dpi) in case of U. maydis seedling infections. Symptom scoring occurred according to the categories described in Table 2. Table 2: Categories of virulence symptoms of U. maydis maize seedling infection (according to Kämper et al., 2006).

[1] = 1 mM final concentration in the inoculum of Zea Mays (Figure 2A, B)
[2] = 5 mM hit compound added to inoculum of FB1xFB2, Zea mays

## Cc1ccc(-c2c(-c3ccc(C)cc3)[n+]([O-])c3ccccn23)cc1 [Compound 1-A]
[1]
  Virulence inhibition of U. maydis: able to reduce virulence
  inhibitory effect on virulence of U. maydis: concentration dependent inhibitory effect
  virulence of U. maydis: significant reductions in virulence
  Retesting for an inhibition of virulence: confirmed the results

## CC(C)n1ncc2cc(NS(=O)(=O)c3cc(F)ccc3F)cnc21 [Compound 1-B]
0.5 mM final concentration, dilution series (Figure 7)
  Virulence inhibition of U. maydis: negligible
1 mM final concentration, dilution series (Figure 7)
  Virulence inhibition of U. maydis: very strong; also recorded: very strongly
  virulence of U. maydis: significant reductions in virulence
  Retesting for an inhibition of virulence: confirmed the results
5 mM final concentration, dilution series (Figure 7)
  Virulence inhibition of U. maydis: very strong; also recorded: very strongly
[2]
  Severity of disease symptoms First infection: XX

## Cc1ccc(CSc2nc(=O)n(C3CCCC3)c3c2CCC3)cc1 [Compound 1-C]
  virulence of U. maydis: significant reductions in virulence
  Retesting for an inhibition of virulence: confirmed the results
[2]
  Severity of disease symptoms First infection: XXX
5 mM hit compound added to inoculum of FB1xFB2, Zea mays, retest
  Severity of disease symptoms Second infection: XXX
Dilution series between 5 mM and 0.01 mM final concentration (Figure 5)
  Virulence inhibition of U. maydis: concentration dependent; also recorded: strong inhibitory activity

## O=[N+]([O-])c1ccc(-c2c(-c3ccccc3)n3ccccc3[n+]2[O-])cc1 [Compound 3-A]
[1]
  Virulence inhibition of U. maydis: only mildly

## [O-][n+]1c(-c2ccc(C(F)(F)F)cc2)c(-c2ccc(C(F)(F)F)cc2)n2ccccc21 [Compound 2-A]
[1]
  Virulence inhibition of U. maydis: able to reduce virulence
  inhibitory effect on virulence of U. maydis: concentration dependent inhibitory effect
